Values quoted from earlier work, collected in US9586989B1, “Non-toxic skin cancer therapy with copper peptides” (Skin Biology, Inc., priority 2011, dated 2017).

How the values were obtained:
[1] = system: 54 human genes overexpressed in patients with aggressive metastatic form of colon cancer; details: for concentration that produced downregulation of "metastatic" genes: Connectivity Map perturbagen search
Ehrlich ascites cells = details: injection for 12 days; mixture of 8 micrograms ascorbic acid and 8 micrograms copper 2+ complex

| Compound | concentration that produced downregulation of "metastatic" genes [1] | share of genes in which RNA production was suppressed ([1]; of 54 human genes overexpressed in aggressive metastatic colon cancer, GHK without copper 2+) | share of mice that lived for a long time and resisted re-establishment of tumor cells (Ehrlich ascites cells) | share of mice with prolonged life span (Ehrlich ascites cells) |
| --- | --- | --- | --- | --- |
| Gly-L-His-L-Lys [GHK] | 1 µM | 70% | – | – |
| O=C1C=C2C=C[C@@H]3C[C@@]2(O1)[C@H]1CCCCN31 [securinine] | 18 µM | – | – | – |
| copper 2+ complexed to Glycyl-Glycyl-L-Histidine | – | – | 40% | 60% |
